Earlier results on 1 compound are cited in US20130178495A1, “IBUDILAST FOR RELIEVING NEGATIVE EFFECTS OF MEDICATION OVERUSE HEADACHE” (MediciNova, Inc., priority 2011, published 2013).

For series [1] the following is noted: rat, bilateral indwelling catheters between the meninges and the skull.
For series [2] the following is noted: single patient, 20 mg per day of ibudilast.

`CC(C)C(=O)c1c(C(C)C)nn2ccccc12` [ibudilast]: the facial allodynia result in series [1] was “blocked and reversed facial allodynia”. For the same compound, in series [2] (migraine on the right side continued), the “frequency and intensity of migraine” value is recorded as “decreased”. In addition, in series [2] (no control), the daily headaches entry is on record as “disappeared in one week”.
